# Source: patent publication EP0404374A2, “Composition” (IMPERIAL CHEMICAL INDUSTRIES PLC, priority 1989, dated 1990)
# Structures can show the parent of a compound that is named as a salt.
# How the values were obtained:
# [1] = test system: cellulase from Aspergillus niger; assay: cellulase activity: viscosity (flow time) of carboxymethyl cellulose solution; format: biochemical; conditions: additive 10mM dm⁻³ pre-incubated with enzyme one hour at 25°C, about 24 minutes in the absence of cellulase; for Flow Rate (b) With additive 10: flow time after 10 minutes incubation; for Flow Rate (b) With additive 60: flow time after 60 minutes incubation
# Procedure: To determine cellulase activity, 15cm³ of a 1% w/v solution of carboxymethyl cellulose in 50mM/dm³ of a tris (hydroxymethyl) aminomethane/hydrochloric acid buffer having a pH of 9, was incubated at 25°C with 0.01cm³ of a 10mg.cm⁻³ aqueous solution of cellulase from Aspergillus niger obtained from the Sigma Chemical Company.
# The viscosity of the cellulose solution was determined after being incubated with the cellulase for either 10 or 60 minutes
# To determine the effect of an additive on the spoilage activity of the enzyme, the compound was incubated with the enzyme at 25°C for a period of one hour, the concentration of the additive being 10mM dm⁻³ . The pre-incubated mixture was then added to a carboxymethyl cellulose solution of the type previously described. The resulting mixture was incubated and the viscosity was determined after 10 and 60 minutes incubation.
# [2] = biological target: chymotrypsin (EC 3.4.21.1) (Bos taurus, UniProt P00766); assay: protease catalysed hydrolysis of chromogenic substrate; format: biochemical; conditions: pH 7, substrate BTEE, one hour at 25°C, pH7, read-out: % of activity retained (h)
# Procedure: N,N¹-dichlorodimethyl hydantoin was dissolved in ethanol in a known amount and was added to a protease in a 0.1M potassium phosphate buffer containing potassium dihydrogen phosphate and dipotassium hydrogen phosphate at pH7.
# protease from S. griseus = assay: as above; format: biochemical; conditions: substrate BTEE, one hour at 25°C, pH7
# Procedure: N,N¹-dichlorodimethyl hydantoin was dissolved in ethanol in a known amount and was added to a protease in a 0.1M potassium phosphate buffer containing potassium dihydrogen phosphate and dipotassium hydrogen phosphate at pH7. The mixture was incubated for one hour at 25°C and the enzyme activity was then compared to that of a control by monitoring the protease catalysed hydrolysis of an appropriate chromogenic substrate.
# [3] = test system: amylase (1,4-α-D-glucan-glucanhydrolase; EC 3.2.1.1); assay: amylase activity in the breakdown of starch (3,5-dinitrosalicylate, absorbance at 540nm); format: biochemical, Bacillus species; conditions: amylase incubated for 90 minutes with 9 X 10⁻⁴M compound; absorption at 540nm
# Procedure: A sample of amylase (1,4-α-D-glucan-glucanhydrolase; EC 3.2.1.1) from a Bacillus species (amylase sample obtained from the Sigma Chemical Company) was tested for activity in the breakdown of starch in the presence and absence of N,N¹-dichlorodimethyl hydantoin.
# The activity of the amylase was estimated by a modification of the method described in Methods in Enzymology, published by the Academic Press, Volume 1, on page 149.
# 1g of potato amylopectin (a soluble starch) was dissolved in 200cm³ of a 20mM sodium phosphate aqueous buffer solution adjusted to pH7. 1cm³ of this solution was equilibrated in a water bath maintained at 25 °C. To the foregoing solution were added 2mm³ of an aqueous solution containing amylase in a concentration of 1mg of amylase/cm³ of solution. The mixture was incubated at 25 °C for five minutes. The reaction was then stopped by the addition of 1cm³ of a 0.4M aqueous sodium hydroxide solution containing 10mg/cm³ of 3,5-dinitrosalicylate and 0.3g/cm³ of sodium potassium tartrate. The resultant mixture was placed in a boiling water bath for five minutes, cooled rapidly and diluted with 10cm³ of water (deionised and subsequently doubly distilled in glass apparatus). The absorbance of the resulting mixture at 540nm was determined using a Perkin Elmer LAMBDA 15 spectrophoto meter.
# [4] = test system: lipase from Pseudomonas species; assay: lipase activity, turbidimetric method with triolein; format: biochemical; conditions: enzyme PS; 9 millimoles; incubated 30 minutes at 25°C, pH 9.2; relative to control
# Procedure: (§1) N,N¹-dichlorodimethyl hydantoin in an amount of 9 millimoles was dissolved in ethanol and added to a lipase in a tris (hydroxymethyl) aminomethane/hydrochloric acid buffer at a pH of 9.2. The mixture was incubated for 30 minutes at 25°C and neutralised by the addition of thiosulphate. The activity of the enzyme was determined as described hereafter.
# (§2) Lipase activity was determined by the turbidimetric method described on pages 26 to 34 of "Methods of Enzymatic Analysis" Third Edition, edited by H V Bergmeyer and published by Verlag Chemie. The decrease in the light scattering of triolein (1,2,3-tris[cis-9-octadecenoyl]glycerol) by lipase was measured at 25°C and 350 nanometres on a Perkin-Elmer Lambda 15 spectrophotometer. Light scattering was measured on 2.8cm³ of an aqueous solution containing 24 micromoles of "Tris" buffer at pH 9.2, one micromole of calcium chloride, 35 micromoles of sodium chloride, 17.5 micromoles of sodium deoxycholate and 0.28 micromole of triolein. The activity was determined by the addition of 5mm³ of an aqueous solution containing 4.5mg cm⁻³ of lipase. Table Two
# [5] = test system: lipase from Candida cylindracea; assay: as above; format: biochemical; conditions: enzyme CC; 9 millimoles; incubated 30 minutes at 25°C, pH 9.2; relative to control
# Procedure: as §1, §2
# [6] = test system: purified components of the cellulase complex; conditions: Wood et al, Biochem.J. (1980), 189, 51 to 65; cited from earlier work
Flow Rate (b) With additive 10 [1] [min],Flow Rate (b) With additive 60 [1] [min],Molecule,further results
23.60,23.00,"O=C1N(Cl)C2C(N1Cl)N(Cl)C(=O)N2Cl (centres unmarked) [TCG, tetrachloroglycoluril]",
22.60,21.80,"CC(=O)OI(OC(C)=O)c1ccccc1 [PIDA, phenyl iodonium di-acetate]",
22.80,22.50,"CC12N(Cl)C(=O)N(Cl)C1(C)N(Cl)C(=O)N2Cl (centres unmarked) [TCMG, tetrachloro-dimethyl glycoluril]",
23.10,22.90,"CC1(C)C(=O)N(Cl)C(=O)N1Cl [DCMH, N,N¹-dichlorodimethyl hydantoin]",activity at 900 µM ([2]; DCMH 0.9 mM): 66%; activity at 9000 µM ([2]; DCMH 9.0 mM): 29%; % of activity retained (h) (protease from S. griseus; DCMH 0.9 mM): 88%; % of activity retained (h) (protease from S. griseus; DCMH 9.0 mM): 9%; breakdown of starch to sugar [3]: no breakdown of starch to sugar could be deteced; % of activity retained (d) [4]: 45%; % of activity retained (d) [5]: 14%
21.20,18.80,"O=S(=O)(c1ccccc1)N(Cl)Cl [DCBS, N,N-dichlorobenzene sulphonamide]",
,,O=C1CCC(=O)N1Br [N-bromosuccinimide],effect on the activity of the enzyme [6]: potent inhibitor
23.50,22.90,"Cln1cncn1 [CT, 1-chloro-1,2,4-triazole]",

Molecule,Flow Rate (b) With additive 10 [1] [min],Flow Rate (b) With additive 60 [1] [min],further results
sodium tetrachloroaurate [STCA],23.80,23.70,
"O=c1[nH]c(=O)n(Cl)c(=O)n1Cl [DCIS, sodium salt of dichlorosiocyanuric acid]",21.90,19.40,
"O=c1[nH]c(=O)n(Cl)c(=O)n1Cl [DCIA, dichloroisocyanuric acid]",22.10,22.30,
